Source: patent publication US8574871B2, “Genetically modified yeasts for the production of homogenous glycoproteins” (GLYCODE, priority 2007, dated 2013)

Legend:
alpha-1,2-mannosidase I = test: Mannosidase activity assay in yeast microsomes, with or without DMJ; type: biochemical, C. Elegans; conditions: 120 μM DMJ, triplicate (FIG. 6)
Protocol: (§1) Mannosidase activity is measured by incubating for 4 hours at 37° C., with 4 mM of p-nitrophenyl-α-D-mannopyranoside with 100-200 μg of proteins (from total proteins or sub-cellular fractions) in 0.1 M of PBS, pH 6.5+/−120 μM DMJ (alpha-1,2-mannosidase I inhibitor) +/−12 μM SW (specific inhibitor of mannosidase II). Absorbance is measured at 405 nm.
The Adèle and Edgar yeasts, positive for the insertion of the expression cassette of mannosidase I in the gene URA3, are tested for their mannosidase I biochemical activity. […] The experiment was conducted in triplicate. We may observe in the wild S. cerevisiae and S. pombe strains, a mannosidase activity non-inhibited by DMJ.

mannosidase II = molecular target: T1, mannosidase II (Mus musculus, UniProt P27046, V673G); test: Mannosidase activity assay in Golgian yeast fractions, with or without swainsonine; type: biochemical; conditions: 12 μM SW (FIG. 9)
T1 construct: Amplification of a 3,453 by fragment; expressed in transfected cells; host or cells: S. cerevisiae and S. pombe with the TEF-promoter cassette integrated in LEU2 (strains Anaïs / Enrique); Golgi fractions
T1 sequence (P27046 1-1150 V673G): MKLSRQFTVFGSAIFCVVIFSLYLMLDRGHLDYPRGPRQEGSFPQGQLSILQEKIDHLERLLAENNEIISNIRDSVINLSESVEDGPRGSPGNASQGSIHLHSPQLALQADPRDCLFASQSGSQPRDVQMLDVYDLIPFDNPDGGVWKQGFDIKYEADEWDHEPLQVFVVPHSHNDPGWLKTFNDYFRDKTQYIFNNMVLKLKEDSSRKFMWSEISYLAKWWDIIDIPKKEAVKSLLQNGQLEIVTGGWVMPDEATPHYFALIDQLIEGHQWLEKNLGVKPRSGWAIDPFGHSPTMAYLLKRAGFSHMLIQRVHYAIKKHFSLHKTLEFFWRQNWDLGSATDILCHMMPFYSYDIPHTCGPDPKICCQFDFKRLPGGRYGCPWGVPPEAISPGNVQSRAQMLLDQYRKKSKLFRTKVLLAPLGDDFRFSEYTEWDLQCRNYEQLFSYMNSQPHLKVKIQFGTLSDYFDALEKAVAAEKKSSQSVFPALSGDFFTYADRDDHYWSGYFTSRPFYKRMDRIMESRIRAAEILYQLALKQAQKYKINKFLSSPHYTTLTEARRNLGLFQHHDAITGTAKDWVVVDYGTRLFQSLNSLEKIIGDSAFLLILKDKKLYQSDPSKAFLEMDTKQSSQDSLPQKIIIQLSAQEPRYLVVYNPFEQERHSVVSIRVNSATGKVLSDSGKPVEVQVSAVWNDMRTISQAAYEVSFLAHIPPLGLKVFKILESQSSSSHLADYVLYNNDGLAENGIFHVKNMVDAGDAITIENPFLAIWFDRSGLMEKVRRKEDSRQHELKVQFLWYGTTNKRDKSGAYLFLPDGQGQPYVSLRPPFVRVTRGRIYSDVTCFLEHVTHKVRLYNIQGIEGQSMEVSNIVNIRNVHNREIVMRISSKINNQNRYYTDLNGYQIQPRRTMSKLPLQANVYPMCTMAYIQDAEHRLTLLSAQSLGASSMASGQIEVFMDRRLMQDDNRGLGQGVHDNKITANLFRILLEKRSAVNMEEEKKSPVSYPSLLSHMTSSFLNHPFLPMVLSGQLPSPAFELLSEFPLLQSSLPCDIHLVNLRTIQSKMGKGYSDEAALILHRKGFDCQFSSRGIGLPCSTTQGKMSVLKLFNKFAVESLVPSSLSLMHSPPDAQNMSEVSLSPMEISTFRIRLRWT
Protocol: as §1
According to FIG. 9, we may observe in the parent S. cerevisiae and S. pombe strains a mannosidase activity insensitive to the inhibitory action of swainsonine. […] Further as, the measured mannosidase II activity is detected in Golgian yeast fractions, we may infer that this enzyme is properly expressed in the secretion route at the Golgian system.

inhibition of mannosidase activity by DMJ (alpha-1,2-mannosidase I; selected S. cerevisiae and S. pombe strains with mannosidase I cassette)	inhibition of mannosidase activity by DMJ (alpha-1,2-mannosidase I; wild S. cerevisiae and S. pombe strains)	Compound	inhibition of mannosidase activity by swainsonine (mannosidase II; parent S. cerevisiae and S. pombe strains)	inhibition of mannosidase activity by swainsonine (mannosidase II; selected S. cerevisiae and S. pombe strains with mannosidase II cassette)
significant inhibition	non-inhibited	OC[C@H]1NC[C@@H](O)[C@@H](O)[C@@H]1O [DMJ, deoxymannojirimycin]	–	–
–	–	O[C@H]1[C@H]2[C@H](O)CCCN2C[C@H]1O [swainsonine]	insensitive	significant inhibition
